Key:
[1] = tested on: intact yeast cells; test: SNO-RAC/iTRAQ identification of SNO-proteins in treated intact yeast; format: cell-based, yeast (S. cerevisiae); conditions: intact cells treated with 100 μM for 2 hr
Method: Protein S-nitrosylation was assessed by the SNO-RAC assay, and differences in the profile of protein S-nitrosylation in WT versus adh6Δ yeast (under basal growth conditions and upon treatment of cells with EtCysNO) were quantified by iTRAQ labeling.
For analysis in yeast, cells were grown to absorbance 600 nm=1.0 and lysed by bead beating in lysis buffer (20 mM bis-tris propane, pH 7.0, 50 mM NaCl, 100 mM EDTA, 100 μM DTPA, 1 mM PMSF and protease inhibitor cocktail (Roche)). The lysate was centrifuged at 20,000 g for 10 min and the supernatant was adjusted to 1 mg/ml protein and retained for analysis. For analysis of SNO-proteins by mercury-coupled-photolysis-chemiluminescence, samples were processed as previously described. […] Eluates were analyzed by SDS-PAGE followed by Western blotting for erg10 (see below) or, for mass spectrometric analysis, individual lanes were excised from the gel and subjected to trypsin digest prior to processing for LC/MS-MS (see below). […]
Prior to analysis by LC-MS/MS, samples were passed through a C18 spin column (Thermo Pierce, Rockford, Ill.) and reconstituted in 0.1% formic acid. […] For peptide identification and quantification using iTRAQ reporter ions, MS analysis was performed using a hybrid linear ion trap Orbitrap Velos mass spectrometer (LTQ-Orbitrap Velos, Thermo, Waltham, Mass.). […]

[2] = tested on: WT and adh6Δ yeast; test: Metabolomic analysis of mevalonate, CoA and acetyl-CoA in treated yeast; format: cell-based, yeast (S. cerevisiae); conditions: 2 hr
Method: In extracts of WT and adh6Δ yeast (untreated and following treatment with EtCysNO), mevalonate, CoA and acetyl-CoA were separated and quantified by GC-MS (mevalonate) or LC-MS/MS (CoA, acetyl-CoA).
Yeast cells grown to mid-log phase (absorbance 600 nm=0.4-0.6) were left untreated or treated with EtCysNO (100 μM) for 2 hrs. Cells were harvested and washed with ice-cold H2O containing 0.1 mM EDTA or DTPA and stored at −80° C. until further analysis. To the samples, 3 ml of MeOH: H2O (8:2) was added followed by addition of 100 μl of D4 (1 mM) citrate as an internal standard. Samples were homogenized for 1 minute and 1 ml of the subsequent homogenate was taken and centrifuged at 800 g for 20 minutes. Supernatant was dried by nitrogen gas. 60 μl of N,O-bistrifluoroacetaniide was added to the dried residue and incubated at 70° C. for 30 minutes. Analyses were carried out on an Agilent 5973 mass spectrometer, linked to a 6890 gas chromatograph system equipped with an autosampler. An Agilent VF-5MS capillary column (60 m×0.32 mm×0.25 μm) was used for chromatographic separation. The carrier gas was helium (1 ml/min) with a pulse pressure of 20.1 p.s.i. The injection was in splitless mode. The temperature for both inlet and transfer line was set at 300° C. The ion source and quadrupole temperature were set at 230 and 150° C. The GC temperature program was as follows: start at 80° C., hold for 1 min, and increase by 10° C./min to 300° C., and it remained at 300° C. for 9 min. Mevalonate and internal standard signals were monitored at its nominal m/z with SIM mode. The m/z monitored for mevalonate and internal standard: 349 and 469, respectively. All the masses were measured in Electron Impact Ion Source. The retention times of mevalonate and internal standard are 15.2 and 18.1 minutes, respectively.
Yeast cells grown to mid-log phase (absorbance 600 nm=0.4-0.6) were left untreated or treated with EtCysNO (500 μM) for 2 hrs. […]

SMILES: CCOC(=O)[C@@H](N)CSN=O [EtCysNO, S-nitroso-cysteine ethyl ester]
- Number of SNO-proteins identified [1]: 103
- Change of mevalonate levels ([2]; adh6Δ yeast, 100 μM): significant decrease
- Change of free CoA levels ([2]; yeast, 500 μM): large decreases
- Change of acetyl-CoA levels ([2]; yeast, 500 μM, increase larger in adh6Δ versus WT cells): increased

From patent US11351155B2, “Compositions and methods of modulating s-nitrosylation” (CASE WESTERN RESERVE UNIVERSITY, priority 2014, dated 2022)
